Results from US20080208039A1, “System and method of performing therapeutic endovascular interventions” (Wisconsin Alumni Research Foundation, priority 2007, published 2008).

Experiment: Diffusion of a fluorescent probe in swollen gelatin gel by FRAP
Type: physicochemical
From the text: To assess the stability of DTPA[Gd(III)] in the gelatin coating, the diffusion of a fluorescence probe in gelatin was studied by the technique of fluorescence recovery after photobleaching (FRAP). The instrument and data analysis scheme are described in Kim, S. H. and Yu, H., J. Phys. Chem. 1992, 96, 4034, which is hereby fully incorporated by reference. Fluorescein was used as the fluorescence probe due, in part, to its molecular size being roughly the same as that of DTPA[Gd(III)].
The focus of the study was to examine the possible retardation effects of gelatin concentration and cross-link density on the diffusion, which was determined at room temperature, i.e., below the gel point of gelatin. The diffusion of fluorescein probe slows down with the increase of gelatin concentration. The diffusion coefficient decreases from 1.5×10-10 to 9×10-12 m2s-1 when the concentration of gelatin increases from 9% to 40%. […] Accordingly, the probe diffusion is more likely controlled by the concentration of gelatin rather than the cross-link density. On the other hand, the cross-link density may determine the swelling ratio of gelatin, i.e., the concentration of gelatin in aqueous solution. […]

## O=C(O)CN(CCN(CC(=O)O)CC(=O)O)CCN(CC(=O)O)CC(=O)O [DTPA, diethylenetriaminepentaacetic acid]
Coating thickness 60 μm, diffusion coefficient 9×10-12 m2s-1
  time to diffuse out of the gelatin coating: about 67 seconds

## O=C1OC2(c3ccc(O)cc3Oc3cc(O)ccc32)c2ccccc21 [fluorescein]
Gelatin films soaked in water for 18 hours, including films not cross-linked
  fluorescence remaining in gelatin films after soaking: still fluorescence signal
